# Source: paper PMC11477482 (Molecules, 2024)
# System: RAW264.7 cells (mitochondrial O2− production)
# Assay: Mitochondrial antioxidant activity (MitoSOX, rotenone-induced superoxide)
# Format: cell-based, mouse
# Settings: rotenone 20 μM alone, oxidative stress inducer
# Procedure: The human keratinocytes (HaCaT, CLS 300493, Eppelheim, Germany) cell line was cultured with Dulbecco’s Modified Eagle’s Medium (DMEM) (Sigma-Aldrich, St. Louis, MO, USA), supplemented with 10% (v/v) of heat-inactivated fetal bovine serum (FBS), 1% (v/v) antibiotic solution (from a 10,000 U/mL penicillin and 10,000 μg/mL streptomycin stock) (Gibco, Carlsbad, CA, USA), 3.7 g/L sodium bicarbonate, and 1 mM sodium pyruvate (Sigma-Aldrich, St. Louis, MO, USA). The cell culture of keratinocytes was detached with EDTA solution 1X (Sigma-Aldrich, St. Louis, MO, USA) when the cells reached 70–80% confluence in cell culture flasks. The mouse macrophage cell line (RAW 264.7, ATCC TIB-71, Manassas, VA, USA) was cultured in DMEM supplemented with 10% (v/v) non-inactivated FBS, 1% (v/v) antibiotic solution, 1.5 g/L sodium bicarbonate, and 1 mM sodium pyruvate. Macrophages were mechanically detached with a cell scraper and subcultured in (1:10) proportion of cellular suspension to a final volume of DMEM. The human monocytic cell line THP-1 (ATCC® TIB-202™, American Type Culture Collection, Manassas, VA, USA) was cultivated in RPMI 1640 supplemented with 10% inactivated FBS, 25 mM (D)-glucose, 10 mM HEPES, 1 mM sodium pyruvate, 100 U/mL penicillin, and 100 μg/mL streptomycin, and maintained at a cell density of 0.4 × 10^6 cells/mL. Cells were subcultured every 2 or 3 days and maintained in culture for 2–3 months, according to ATCC® instructions.
# Mitochondrial superoxide (O2^−) generation was determined using the MitoSOX Red kit, according to the manufacturer’s instructions. Briefly, 5.0 × 10^5 cells/mL were plated in a 12-well plate and incubated for 24 h at 37 °C. The cells were then exposed to the AA, AAG and AAGS solution (500 µM), and after 1 h, rotenone (20 μM) was added, followed by incubation for an additional 5 h. The cells were then carefully detached, transferred to microtubes, and centrifuged at 500× g for 3 min. The cell pellet was washed with HBSS solution (2 × 1 mL), resuspended in PBS solution, and 300 µL was collected in two microtubes for unstained (150 µL) and stained (150 µL) conditions. The stained cells were incubated with 100 μL of freshly prepared MitoSOX solution 2.5 µM at 37 °C for 15 min in the dark. The stained cells were washed with HBSS solution (2 × 1 mL), and the cell pellet was resuspended in 100 μL of PBS and analyzed by flow cytometry using a BD Accuri™ C6 cytometer (San Jose, CA, USA).
# CD86 and CD54 levels were analyzed by flow cytometry using the acquisition channels FL1 and FL4. Mitochondrial O2^− production was measured by flow cytometry using the acquisition channel FL2. The relative fluorescence intensity (RFI) of CD86 and CD54 (THP-1 maturation assay) and MitoSOX (mitochondrial antioxidant activity) in the control and chemical-treated cells, based on the geometric mean fluorescence intensity (MFI), was calculated according to the following equation: RFI=MFI of chemical treated cells−MFI of chemical treated unstained cells/MFI of control treated cells−MFI of control unstained cells ×100
compound,measurement,value
C=C(C)[C@H]1Cc2c(ccc3c2O[C@@H]2COc4cc(OC)c(OC)cc4[C@@H]2C3=O)O1 [Rotenone],relative fluorescence intensity (RFI) of MitoSOX,269.70 ± 11.63%
